This is an account of results in paper PMC6628648, “Enabling microbial syringol conversion through structure-guided protein engineering” (Proceedings of the National Academy of Sciences of the …, 2019).

The target in test [1] is T1, GcoA variant F169L (Amycolatopsis sp., UniProt P0DPQ7, F169L).
T1 construct: GST (N, cleaved yes); made in house; host or cells: E. coli Rosetta 2 (DE3)
Briefly: NADH consumption assay (specific activity) with GcoB. The test is classed as biochemical, Amycolatopsis sp. ATCC 39116. The following applies: saturating (200 µM) substrate, pH 7.5, 25°C.

Test [2] deals with T2, WT GcoA (Amycolatopsis sp., UniProt P0DPQ7).
T2 construct: GST (N, cleaved yes); made in house; host or cells: E. coli Rosetta 2 (DE3)
T2 sequence (P0DPQ7 1-407): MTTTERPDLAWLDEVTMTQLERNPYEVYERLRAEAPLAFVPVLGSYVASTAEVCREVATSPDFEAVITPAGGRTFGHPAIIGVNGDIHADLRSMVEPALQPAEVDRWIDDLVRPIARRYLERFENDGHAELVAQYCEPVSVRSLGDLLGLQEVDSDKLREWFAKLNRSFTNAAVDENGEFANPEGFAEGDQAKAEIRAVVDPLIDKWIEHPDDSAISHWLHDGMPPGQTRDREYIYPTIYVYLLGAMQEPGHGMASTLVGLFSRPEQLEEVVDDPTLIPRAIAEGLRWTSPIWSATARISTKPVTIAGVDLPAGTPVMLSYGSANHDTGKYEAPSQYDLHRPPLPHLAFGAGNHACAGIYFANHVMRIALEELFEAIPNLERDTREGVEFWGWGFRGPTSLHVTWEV
As to the kind of experiment: End-point coupling assay (formaldehyde produced per NADH consumed). The test is classed as biochemical, Amycolatopsis sp. ATCC 39116. The following applies: molar ratio formaldehyde produced per NADH consumed, 200 µM NADH, 200 µM aromatic substrate.

The target in a further test is T3, GcoA variant F169V (Amycolatopsis sp., UniProt P0DPQ7, F169V).
T3 construct: GST (N, cleaved yes); made in house; host or cells: E. coli Rosetta 2 (DE3)
The description is as above. The following applies: molar ratio formaldehyde produced per NADH consumed, 200 µM NADH, 200 µM aromatic substrate. It is filed as biochemical, Amycolatopsis sp. ATCC 39116. Here is the method: (§1) The [formaldehyde] produced on reaction with GcoA-F169A and substrates was determined using a colorimetric assay with tryptophan ([28], [42]); details are provided in SI Appendix. […]
(§2) vi = Vmax[S]/(KM + [S]) (4) […]
(§3) Formaldehyde determination. A colorimetric assay using tryptophan can be used to quantify the amount of formaldehyde produced in F169 GcoA/B reactions with guaiacol, syringol, or 3MC. 0.2 µM each of F169 GcoA mutants and GcoB were dissolved in air-saturated buffer (25 mM HEPES, 50 mM NaCl) in a cuvette at pH 7.5, 25 °C. 100 µg/mL catalase was added to each reaction to capture any H2O2 formed during the uncoupled reaction. 200 μM NADH was added and the background rate recorded. 100 (guaiacol, syringol, or 3MC) or 200 (syringol) μM of substrate was then added and the reaction monitored until there was no more change, due to either substrate, NADH or O2 depletion, whichever occurred first. 200 µL of the reaction was then quenched by adding 200 µL of a 0.1% tryptophan solution in 50% ethanol and 200 µL of 90% sulfuric acid. Upon thorough mixing, 40 µL of 1% FeCl3 was added. The solution was then incubated in a heating block for 90 min at 70 °C. After cooling, the absorbance was read at 575 nm and the [formaldehyde] calculated by using ε575 nm = 4.2 mM-1 cm-1, obtained with formaldehyde as a standard (1). A negative control included everything but the substrate and was used as a baseline. […]
(§4) The reaction of each aliquot was immediately quenched with 12.5
(§5) μL saturated ammonium sulfate, 7% v/v H2SO4 (pH 2.0) prior to loading onto the HPLC column. [Substrate] disappearance was referenced to GcoA (0.2 µM) and fit to a linear line to determine specific activity.
(§6) Data analysis. The consumption of NADH and subsequent production of formaldehyde and aromatic product were measured in triplicate and the error reported as ±1 standard deviation. To determine the statistical significance between NADH consumption and the products produced, the p-value was determined for all runs containing guaiacol, syringol, and 3MC. These values were calculated using two degrees of freedom, a tail value of two, and assuming a t-statistical value for unequal variances.
(§7) Detection of H2O2 via horseradish peroxidase (HRP) and Amplex Red assay. The reaction between 100 μM guaiacol or 3MC with 0.2 μM F169A/GcoB and 100 μM NADH in air-saturated buffer (25 mM HEPES, 50 mM NaCl, pH 7.5) was monitored continuously in a quartz cuvette, using the NADH consumption assay described above. The same thing was done for syringol, but with either 100 or 200 μM NADH. When there was no longer any change in the spectra, e.g., the reaction was completed, 100 μL was removed from the cuvette and pipetted into a 96-well microplate. A 5 mL solution containing 50 μL of 10 mM Amplex Red (prepared in DMSO and stored at -20 °C) and 100 μL of 10 U/mL HRP was made up in the above buffer. 100 μL of this was added to each of the wells with each reaction sample. The plate was incubated in the dark at room temperature for 30 min, at which point the absorbance at […]
(§8) Table S1. Rate of substrate disappearance or product appearance (specific activity) for F169A.
(§9) Substrate NADH disappearance aromatic substrate disappearance KD (µM) […]
(§10) Table S2. Rates of substrate disappearance and coupling efficiencies for reactions catalyzed by the GcoA-F169 variants.
(§11) GcoA Specific activity Coupling Specific activity Coupling Specific activity (μmol Coupling variant (μmol sec-1 μmol-1 efficiency (μmol sec-1 μmol-1 efficiency sec-1 μmol-1 GcoA)a efficiency GcoA)a (%)b GcoA)a (%)b (%)b […]
(§12) aNADH consumption was monitored continuously over time via UV/vis and quantifying with ε340 = 6.22 mM-1 cm-1 at 25°C, 25 mM HEPES, 50 mM NaCl, pH 7.5 and saturating (200 µM) concentrations of all substrates (syringol, guaiacol, and 3MC). bCalculated as the molar ratio of formaldehyde produced per NADH consumed in a fixed-time assay. Assay conditions: 0.2 µM […]

Test [3] has as its target T4, GcoA variant F169I (Amycolatopsis sp., UniProt P0DPQ7, F169I).
T4 construct: GST (N, cleaved yes); made in house; host or cells: E. coli Rosetta 2 (DE3)
Described as above. It is filed as biochemical, Amycolatopsis sp. ATCC 39116. The following applies: molar ratio formaldehyde produced per NADH consumed, 200 µM NADH, 200 µM aromatic substrate. Here is the method:
as §1, §2, §3, §4, §5, §6, §7, §8, §9, §10, §11, §12

The target of test [4] is T1, GcoA variant F169L. Described as above. The test is classed as biochemical, Amycolatopsis sp. ATCC 39116. The following applies: molar ratio formaldehyde produced per NADH consumed, 200 µM NADH, 200 µM aromatic substrate. How it is done: as §1, §2, §3, §4, §5, §6, §7, §8, §9, §10, §11, §12
The target in test [5] is T4, GcoA variant F169I. As to the kind of experiment: NADH consumption assay (specific activity) with GcoB. It is filed as biochemical, Amycolatopsis sp. ATCC 39116. The following applies: saturating (200 µM) substrate, pH 7.5, 25°C.
For test [6], the target named is T5, WT GcoA (Amycolatopsis sp., UniProt P0DPQ7).
T5 construct: GST (N, cleaved yes); made in house; host or cells: E. coli Rosetta 2 (DE3)
Briefly: biochemical. The test is classed as binding, Amycolatopsis sp. ATCC 39116. The following applies: for %Fe(III) spin state conversion: WT GcoA, final high-spin (388 nm) divided by starting low-spin (417 nm).

The target of the next test is GcoA-F169A (Amycolatopsis sp., UniProt P0DPQ7, F169A). Briefly: NADH consumption assay (steady-state kinetics, specific activity) with GcoB. The following applies: for Specific activity: NADH consumption, saturating (200 µM) substrate, pH 7.5, 25°C; for NADH disappearance (specific activity): Table S1, saturating substrate.
Sequence of GcoA-F169A (P0DPQ7 whole entry F169A): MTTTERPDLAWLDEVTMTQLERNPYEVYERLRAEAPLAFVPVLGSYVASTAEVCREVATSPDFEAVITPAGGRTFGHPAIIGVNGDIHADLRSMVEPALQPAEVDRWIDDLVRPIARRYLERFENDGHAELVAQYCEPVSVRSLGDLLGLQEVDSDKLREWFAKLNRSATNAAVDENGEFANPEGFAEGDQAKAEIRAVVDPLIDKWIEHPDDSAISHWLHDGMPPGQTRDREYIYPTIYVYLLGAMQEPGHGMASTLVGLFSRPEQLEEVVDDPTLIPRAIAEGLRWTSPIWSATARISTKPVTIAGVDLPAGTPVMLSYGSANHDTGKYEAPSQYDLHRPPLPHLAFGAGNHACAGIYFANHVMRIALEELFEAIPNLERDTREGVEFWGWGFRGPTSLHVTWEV

T1 sequence (P0DPQ7 whole entry F169L): as the sequence (P0DPQ7 whole entry F169A) above, with A169L counted along it
T4 sequence (P0DPQ7 whole entry F169I): as the sequence (P0DPQ7 whole entry F169A) above, with A169I counted along it
T3 sequence (P0DPQ7 whole entry F169V): as the sequence (P0DPQ7 whole entry F169A) above, with A169V counted along it

As for `COc1cccc(O)c1O` [3MC, 3-methoxycatechol], the Specific activity at GcoA variant F169L [1] amounted to 0.57 ± 0.2 μmol sec-1 μmol-1 GcoA; on GcoA variant F169I [5], 1.1 ± 0.7 μmol sec-1 μmol-1 GcoA; at GcoA-F169A, 5.6 ± 0.8 μmol sec-1 μmol-1 GcoA. Moreover, the Coupling efficiency was determined as 78 ± 3% on WT GcoA [2], 40 ± 3% at GcoA variant F169V, 10 ± 9% on GcoA variant F169I [3] and 5.0 ± 4% at GcoA variant F169L [4]. Moreover, the “%Fe(III) spin state conversion” value at WT GcoA [6] is 62 ± 0.01%. Moreover, the “NADH disappearance (specific activity)” value on GcoA-F169A amounted to 5.6 ± 0.8 μM s-1 μmol F169A-1.
Consider `COc1ccccc1O` [guaiacol, 2-methoxyphenol], for which the Specific activity on GcoA variant F169L [1] turned out to be 4.5 ± 0.3 μmol sec-1 μmol-1 GcoA; at GcoA variant F169I [5], 1.4 ± 0.2 μmol sec-1 μmol-1 GcoA; at GcoA-F169A it was 5.8 ± 0.8 μmol sec-1 μmol-1 GcoA. Also, the Coupling efficiency was found to be 110 ± 10% at WT GcoA [2], 105 ± 2% on GcoA variant F169V, 41 ± 10% on GcoA variant F169I [3] and 73 ± 3% at GcoA variant F169L [4]. For the same compound, binding at WT GcoA [6] was characterised by a dissociation constant (Kd) of 6.5 ± 2 nM. In addition, the “%Fe(III) spin state conversion” value at WT GcoA [6] is 87 ± 1%. Moreover, the “NADH disappearance (specific activity)” value at GcoA-F169A is given as 5.8 ± 0.8 μM s-1 μmol F169A-1.
Turning to `COc1cccc(OC)c1O` [syringol, 2,6-dimethoxyphenol], the Specific activity at GcoA variant F169L [1] is given as 0.54 ± 0.1 μmol sec-1 μmol-1 GcoA; on GcoA variant F169I [5], 0.56 ± 0.2 μmol sec-1 μmol-1 GcoA; on GcoA-F169A, 5.1 ± 0.8 μmol sec-1 μmol-1 GcoA. Further, the Coupling efficiency at WT GcoA [2] is listed as 7.1 ± 0.8%; on GcoA variant F169V it was 100 ± 10%; on GcoA variant F169I [3], 14 ± 2%; on GcoA variant F169L [4], 7.8 ± 2%. For the same compound, the “%Fe(III) spin state conversion” value on WT GcoA [6] was 56 ± 2%. In addition, at GcoA-F169A, the “NADH disappearance (specific activity)” value was found to be 5.1 ± 0.8 μM s-1 μmol F169A-1.

One may read the Kd as a measure of binding affinity in units of concentration. Lower therefore signals higher affinity.
